For 14 compounds, IC50 and melting point results are on record in patent US8946282B2, “Indolin-2-one derivatives as protein kinase inhibitors” (Annji Pharmaceutical Co., Ltd., priority 2012, dated 2015).

Series [1] relates to HCT116 human colorectal carcinoma cells. In words: anti-proliferation, SRB colorimetric assay, HCT116. The class given is cell-based. Conditions: HCT-116, concentration required for 50% growth inhibition, read-out: IC50 (μM, mean ± S.D.). The method, then: (§1) HCT116 human colorectal carcinoma cells (Table 3), HepG2 human hepatocellular carcinoma cells (Table 4), and MV4-11 human acute myelomonocytic leukemia cells (Table 5). Cells were treated with the test compound and the concentration required for 50% growth inhibition (IC50) determined by sulfomodamine B (SRB) colorimetric assay.

In series [2] the test system is A549 human lung carcinoma cells. In words: anti-proliferation, SRB colorimetric assay, A549. To be noted: concentration required for 50% growth inhibition, read-out: IC50 (μM, mean ± S.D.). The class given is cell-based.
Series [3] relates to HepG2 human hepatocellular carcinoma cells. Put plainly: anti-proliferation, SRB colorimetric assay, HepG2. It counts as cell-based. Conditions: concentration required for 50% growth inhibition, read-out: IC50 (μM, mean ± S.D.). From the text: HCT116 human colorectal carcinoma cells (Table 3), HepG2 human hepatocellular carcinoma cells (Table 4), and MV4-11 human acute myelomonocytic leukemia cells (Table 5).

A further series has as its target T1, FLT-3 (Homo sapiens, UniProt P36888).
T1 sequence (P36888 27-993): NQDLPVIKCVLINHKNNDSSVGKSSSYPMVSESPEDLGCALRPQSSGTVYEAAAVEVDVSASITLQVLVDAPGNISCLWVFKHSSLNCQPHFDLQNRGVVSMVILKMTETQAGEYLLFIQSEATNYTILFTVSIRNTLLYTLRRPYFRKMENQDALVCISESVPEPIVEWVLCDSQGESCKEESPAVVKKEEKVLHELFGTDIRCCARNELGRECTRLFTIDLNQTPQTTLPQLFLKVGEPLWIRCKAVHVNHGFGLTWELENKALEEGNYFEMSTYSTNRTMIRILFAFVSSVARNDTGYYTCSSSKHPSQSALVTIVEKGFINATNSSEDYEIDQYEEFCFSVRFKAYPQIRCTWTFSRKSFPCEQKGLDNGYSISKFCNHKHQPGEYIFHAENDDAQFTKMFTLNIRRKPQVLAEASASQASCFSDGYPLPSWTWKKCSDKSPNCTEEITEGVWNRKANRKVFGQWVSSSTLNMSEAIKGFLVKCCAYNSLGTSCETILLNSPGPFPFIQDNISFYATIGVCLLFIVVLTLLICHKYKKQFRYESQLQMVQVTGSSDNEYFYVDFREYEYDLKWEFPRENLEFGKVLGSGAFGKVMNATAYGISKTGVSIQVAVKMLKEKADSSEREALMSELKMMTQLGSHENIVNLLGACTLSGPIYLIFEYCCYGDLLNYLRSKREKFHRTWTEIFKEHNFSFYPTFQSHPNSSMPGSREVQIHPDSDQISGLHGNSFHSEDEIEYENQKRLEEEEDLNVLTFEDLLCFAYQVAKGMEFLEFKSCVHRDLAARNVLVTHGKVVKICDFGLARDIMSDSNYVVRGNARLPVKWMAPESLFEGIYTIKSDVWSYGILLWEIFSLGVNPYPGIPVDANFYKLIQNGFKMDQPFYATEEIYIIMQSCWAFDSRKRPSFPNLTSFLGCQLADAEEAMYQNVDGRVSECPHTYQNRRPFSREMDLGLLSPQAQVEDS
Put plainly: radioisotope-based P81 filter-binding assay, FLT-3 kinase. It counts as biochemical. To be noted: averaged from two independent dose-response curves; read-out: Enzyme assay IC50 FLT-3. The method, then: (§2) Compounds of formula (I)-(IV) were evaluated for abilities in inhibiting protein kinases aurora B and FLT-3 activity using radioisotope-based P81 filter-binding assay (Table 1).

A further series addresses aurora B (Homo sapiens, UniProt Q96GD4). Put plainly: radioisotope-based P81 filter-binding assay, aurora B kinase. The class given is biochemical. To be noted: averaged from two independent dose-response curves; read-out: Enzyme assay IC50 Aur B. On the procedure:
as §2

Series [4] has as its system MV4-11 human acute myelomonocytic leukemia cells. In words: anti-proliferation, SRB colorimetric assay, MV4-11. It counts as cell-based. To be noted: concentration required for 50% growth inhibition. The method, then:
as §1

Molecules are shown by their SMILES.

What is called IC50 is the midpoint of a concentration-inhibition curve. As usually defined, the melting point is the temperature, or range, at which the solid turns liquid.

Chain of aurora B (Q96GD4 whole entry): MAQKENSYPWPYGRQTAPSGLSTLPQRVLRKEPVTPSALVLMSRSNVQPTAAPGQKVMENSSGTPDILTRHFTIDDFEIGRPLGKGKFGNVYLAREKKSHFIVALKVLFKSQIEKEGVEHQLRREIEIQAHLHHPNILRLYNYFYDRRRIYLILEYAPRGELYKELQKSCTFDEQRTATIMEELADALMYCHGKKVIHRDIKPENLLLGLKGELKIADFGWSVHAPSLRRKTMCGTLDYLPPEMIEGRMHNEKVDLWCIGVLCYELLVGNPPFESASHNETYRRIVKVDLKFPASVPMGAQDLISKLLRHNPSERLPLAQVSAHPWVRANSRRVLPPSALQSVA

For `Cc1[nH]c(/C=C2\C(=O)Nc3cc(NC(=O)NC(=O)c4ccccc4F)ccc32)c(C)c1CCC(=O)O` [D54, (Z)-3-(5-((6-(3-(2-fluorobenzoyl)ureido)-2-oxoindolin-3-ylidene)methyl)-2,4-dimethyl-1H-pyrrol-3-yl)propanoic acid], the melting point is 267 to 272 °C (dec.). Also, the IC50 in series [1] worked out at 0.97 ± 0.21 µM. The IC50 in series [2] is 0.11 ± 0.01 µM. Also, in series [3], the IC50 amounted to 0.47 ± 0.1 µM. Moreover, the 50% inhibitory concentration (IC50) at FLT-3 came out at 12.4 nM. Moreover, the IC50 at aurora B came to 1.5 nM.

Turning to `Cc1[nH]c(/C=C2\C(=O)Nc3cc(NC(=O)NC(=O)c4ccc(F)cc4)ccc32)c(C)c1CCC(=O)O` [D55, (Z)-3-(5-((6-(3-(4-fluorobenzoyl)ureido)-2-oxoindolin-3-ylidene)methyl)-2,4-dimethyl-1H-pyrrol-3-yl)propanoic acid], the melting point was > 300 °C. The IC50 in series [1] worked out at 0.45 ± 0.02 µM. For the same compound, the IC50 in series [2] was 0.08 ± 0.01 µM. The IC50 in series [3] stood at 0.21 ± 0.02 µM. The IC50 at FLT-3 was found to be 45.7 nM. Further, the IC50 on aurora B stood at 1.8 nM.

On to `Cc1[nH]c(/C=C2\C(=O)Nc3cc(NC(=O)NC(=O)c4ccc(F)cc4F)ccc32)c(C)c1CCC(=O)O` [D56, (Z)-3-(5-((6-(3-(2,4-difluorobenzoyl)ureido]-2-oxoindolin-3-ylidene)methyl)-2,4-dimethyl-1H-pyrrol-3-yl)propanoic acid], for which the melting point is 280 to 285 °C (dec.). In addition, the IC50 in series [1] amounted to 0.32 ± 0.07 µM. In addition, in series [2], the IC50 stood at 0.1 ± 0.01 µM. The IC50 in series [3] amounted to 0.13 ± 0.06 µM. In addition, the IC50 on FLT-3 was 2.7 nM. For the same compound, the 50% inhibitory concentration (IC50) on aurora B is 2.1 nM.

`COc1ccc(C(=O)NC(=O)Nc2ccc3c(c2)NC(=O)/C3=C\c2[nH]c(C)c(C(=O)NCCN(C)C)c2C)c(F)c1` [D68]: the IC50 worked out at 0.87 ± 0.06 µM in series [1]; 0.47 ± 0.01 µM in series [2]; 0.74 ± 0.07 µM in series [3]; 16.2 nM at FLT-3; 10.5 nM on aurora B.

For `CCN(CC)CCNC(=O)c1c(C)[nH]c(/C=C2\C(=O)Nc3cc(NC(=O)NC(=O)c4ccc(OC)cc4F)ccc32)c1C` [D69, (Z)—N-(2-(diethylamino)ethyl)-5-((6-(3-(2-fluoro-4-methoxybenzoyl)ureido)-2-oxoindolin-3-ylidene)methyl)-2,4-dimethyl-1H-pyrrole-3-carboxamide], the melting point was 275 to 280 °C (dec.). For the same compound, the IC50 in series [1] is 0.91 ± 0.01 µM. Further, the IC50 in series [2] is 0.46 ± 0.07 µM. The IC50 in series [3] was determined as 0.88 ± 0.04 µM. In addition, the IC50 at FLT-3 stood at 4.4 nM. Further, the IC50 on aurora B came out at 7.6 nM.

Consider `COc1ccc(C(=O)NC(=O)Nc2ccc3c(c2)NC(=O)/C3=C\c2[nH]c(C)c(C(=O)NCCN3CCCC3)c2C)c(F)c1` [D70, (Z)-5-((6-(3-(2-fluoro-4-methoxybenzoyl)ureido)-2-oxoindolin-3-ylidene)methyl)-2,4-dimethyl-N-(2-(pyrrolidin-1-yl)ethyl)-1H-pyrrole-3-carboxamide], for which the IC50 in series [1] was found to be 0.85 ± 0.08 µM; in series [2], 0.56 ± 0.05 µM; in series [3] it was 0.68 ± 0.03 µM; at FLT-3 it was 0.5 nM; at aurora B it was 0.4 nM.

`O=C1Nc2cc(NC(=O)c3cccn(-c4ccc(Cl)c(Cl)c4)c3=O)ccc2/C1=C/c1ccc[nH]1` [D110, (Z)—N-(3-((1H-pyrrol-2-yl)methylene)-2-oxoindolin-6-yl)-1-(3,4-dichlorophenyl)-2-oxo-1,2-dihydropyridine-3-carboxamide]: the IC50 is 0.85 ± 0.13 µM in series [1]; 2.4 nM in series [4]; 0.82 ± 0.03 µM in series [3]; 59.9 nM at FLT-3; > 1000 nM on aurora B.

In the case of `COc1ccc(-c2c[nH]cc(C(=O)Nc3ccc4c(c3)NC(=O)/C4=C\c3ccc[nH]3)c2=O)cc1` [D128, (Z)—N-(3-((1H-pyrrol-2-yl)methylene)-2-oxoindolin-6-yl)-5-(4-methoxyphenyl)-4-oxo-1,4-dihydropyridine-3-carboxamide], the melting point is > 300 °C. The half-inhibitory concentration (IC50) in series [1] came out at 0.63 ± 0.09 µM. The IC50 in series [2] worked out at 0.62 ± 0.06 µM. Besides, in series [4], the IC50 was 25 nM. Moreover, the IC50 in series [3] was 0.81 ± 0.04 µM. In addition, the IC50 at FLT-3 is 24.9 nM. Besides, on aurora B, the IC50 was found to be 10.2 nM.

`O=C1Nc2cc(NC(=O)c3c[nH]cc(-c4ccc(Cl)cc4)c3=O)ccc2/C1=C/c1ccc[nH]1` [D130, (Z)—N-(3-((1H-pyrrol-2-yl)methylene)-2-oxoindolin-6-yl)-5-(4-chlorophenyl)-4-oxo-1,4-dihydropyridine-3-carboxamide]: the melting point was > 300 °C. The half-maximal inhibitory concentration (IC50) in series [1] is 0.57 ± 0.04 µM. Moreover, the IC50 in series [2] was < 0.1 µM. Inhibition in series [4] was half-maximal at 4.38 nM (IC50). The IC50 in series [3] was 0.67 ± 0.05 µM. Besides, the half-maximal inhibitory concentration (IC50) at FLT-3 was determined as 7.6 nM. In addition, the IC50 at aurora B is 53.8 nM.

With `Cc1ccc(-c2c[nH]cc(C(=O)Nc3ccc4c(c3)NC(=O)/C4=C\c3ccc[nH]3)c2=O)cc1` [D131, (Z)—N-(3-((1H-pyrrol-2-yl)methylene)-2-oxoindolin-6-yl)-5-p-tolyl-4-oxo-1,4-dihydropyridine-3-carboxamide], the melting point was > 300 °C. Moreover, the IC50 in series [1] is 0.56 ± 0.03 µM. The concentration for half-maximal inhibition (IC50) in series [2] is 0.52 ± 0.03 µM. This compound had an IC50 in series [4] of 18.4 nM. Moreover, the IC50 in series [3] was 0.71 ± 0.07 µM. Besides, on FLT-3, the half-inhibitory concentration (IC50) was 74.7 nM. Besides, the IC50 on aurora B stood at 63.2 nM.

Regarding `O=C1Nc2cc(NC(=O)c3c[nH]cc(-c4cccc(Cl)c4)c3=O)ccc2/C1=C/c1ccc[nH]1` [D132, (Z)—N-(3-((1H-pyrrol-2-yl)methylene)-2-oxoindolin-6-yl)-5-(3-chlorophenyl)-4-oxo-1,4-dihydropyridine-3-carboxamide], the melting point was > 300 °C. In series [1], the IC50 was 0.63 ± 0.03 µM. Also, the IC50 in series [2] came out at 0.5 ± 0.01 µM. In addition, the concentration for half-maximal inhibition (IC50) in series [4] was 9.1 nM. The IC50 in series [3] is 0.55 ± 0.03 µM. Further, the half-inhibitory concentration (IC50) at FLT-3 worked out at 148 nM. Also, the IC50 at aurora B worked out at 161 nM.

On to `O=C1Nc2cc(NC(=O)c3c[nH]cc(-c4ccc(C(F)(F)F)cc4)c3=O)ccc2/C1=C/c1ccc[nH]1` [D133], for which the melting point is > 300 °C. Moreover, the IC50 in series [1] was determined as 0.65 ± 0.04 µM. Further, the IC50 in series [2] worked out at 0.45 ± 0.08 µM. Further, in series [4], the midpoint of inhibition, the IC50, lay at 5.9 nM. Further, in series [3], the IC50 amounted to 0.73 ± 0.03 µM. For the same compound, the IC50 on FLT-3 turned out to be 100 nM. Also, the IC50 on aurora B turned out to be 348 nM.

Take `O=C1Nc2cc(NC(=O)c3c[nH]cc(-c4cc(F)cc(F)c4)c3=O)ccc2/C1=C/c1ccc[nH]1` [D136, (Z)—N-(3-((1H-pyrrol-2-yl)methylene)-2-oxoindolin-6-yl)-4-oxo-5-(3,5-difluorophenyl)-1,4-dihydropyridine-3-carboxamide]: the melting point is > 300 °C. Further, the IC50 in series [1] worked out at 0.6 µM. The IC50 in series [2] was found to be 0.6 µM. Besides, the IC50 in series [3] was 0.6 µM. Also, the IC50 on FLT-3 was > 1000 nM. The concentration for half-maximal inhibition (IC50) on aurora B was determined as 123 nM.

The compound `Cc1[nH]c(/C=C2\C(=O)Nc3cc(NC(=O)c4c[nH]cc(-c5ccc(F)cc5)c4=O)ccc32)c(C)c1CCC(=O)N1CCN(C)CC1` [D151, (Z)—N-(3-((3,5-dimethyl-4-(3-(4-methylpiperazin-1-yl)-3-oxopropyl)-1H-pyrrol-2-yl)methylene)-2-oxoindolin-6-yl)-5-(4-fluorophenyl)-4-oxo-1,4-dihydropyridine-3-carboxamide] had a melting point of 250 °C. In addition, the IC50 in series [2] was 0.66 ± 0.07 µM. Besides, the IC50 in series [4] was found to be 0.34 nM. Moreover, in series [3], the half-inhibitory concentration (IC50) is 0.88 ± 0.13 µM. In addition, at FLT-3, the IC50 is 4.8 nM. The 50% inhibitory concentration (IC50) at aurora B was 107 nM.
